± gives the standard deviation of the averaged measurements.
Columns and labels:
Experiment in all cases: level (log10 ratio to DMSO vehicle control); higher = higher biomarker level / cell amount than vehicle control
Settings in all cases: in DMSO
[1] = compound: NS(=O)(=O)C(F)(F)C(F)(F)C(F)(F)C(F)(F)C(F)(F)C(F)(F)F [Perfluorohexanesulfonamide]
Description: (§1)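 BioMAP Diversity Plus panel of 12 human primary cell co-culture systems (3C, 4H, LPS, SAg, BT, BF4T, BE3C, CASM3C, HDF3CGF, KF3CT, MyoF, Mphg). Compounds were added 1 h before stimulation and left for 24 h (MyoF 48 h; BT 72 h for soluble read-outs or 6 d for IgG). Biomarkers were read by ELISA, cytotoxicity by SRB, PBMC viability and proliferation by Alamar Blue. Each well value was divided by the mean of 8 DMSO control wells on the same plate and log10 transformed; duplicate blinded samples were tested at 4 concentrations.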

[2] = compound: NC(=O)C(F)(F)C(F)(F)C(F)(F)C(F)F
Description: as §1

[3] = compound: O=S(=O)(O)C(F)(F)C(F)(F)C(F)(F)C(F)(F)C(F)(F)C(F)(F)C(F)(F)C(F)(F)C(F)(F)C(F)(F)F [Sodium perfluorodecanesulfonate]
Description: as §1

[4] = compound: O=S(=O)(F)C(F)(F)C(F)(F)C(F)(F)C(F)(F)C(F)(F)C(F)(F)C(F)(F)C(F)(F)F [Perfluorooctanesulfonyl fluoride]
Description: as §1

[5] = compound: FC(F)(F)C(F)(F)CNCC(F)(F)C(F)(F)F [Bis(1H,1H-perfluoropropyl)amine]
Description: as §1

Test System | level (log10) ([1]; 6700 nM) | level (log10) ([1]; 20000 nM) | level (log10) ([1]; 60000 nM) | level (log10) ([2]; 6700 nM) | level (log10) ([2]; 20000 nM) | level (log10) ([2]; 60000 nM) | level (log10) ([3]; 1500 nM) | level (log10) ([3]; 4400 nM) | level (log10) ([3]; 13000 nM) | level (log10) ([3]; 40000 nM) | level (log10) ([4]; 6700 nM) | level (log10) ([4]; 20000 nM) | level (log10) ([4]; 60000 nM) | level (log10) ([5]; 6700 nM) | level (log10) ([5]; 20000 nM) | level (log10) ([5]; 60000 nM)
BT:sIL-6 | 0.013 ± 0.09 | -0.0025 ± 0.061 | -0.0455 ± 0.037 | 0.0315 ± 0.074 | -0.0335 ± 0.023 | -0.0795 ± 0.11 | 0 ± 0.031 | -0.0045 ± 0.026 | -0.036 ± 0.1 | -0.0235 ± 0.05 | -0.055 ± 0.037 | -0.021 ± 0.047 | -0.037 ± 0.048 | 0.0285 ± 0.0064 | 0.02 ± 0.013 | 0.0245 ± 0.011
BT:sIL-17F | -0.0125 ± 0.11 | 0.054 ± 0.041 | -0.13 ± 0.027 | 0.0335 ± 0.019 | -0.0275 ± 0.015 | -0.018 ± 0.023 | -0.025 ± 0.083 | 0.0315 ± 0.1 | 0.0615 ± 0.19 | 0.025 ± 0.086 | -0.0145 ± 0.032 | -0.0345 ± 0.079 | 0.035 ± 0.12 | -0.088 ± 0.042 | -0.0175 ± 0.076 | 0.0375 ± 0.0064
BT:sTNF-alpha | -0.013 ± 0.12 | -0.027 ± 0.065 | 0.068 ± 0.09 | 0.0475 ± 0.19 | -0.0695 ± 0.0035 | -0.0215 ± 0.047 | -0.018 ± 0.13 | 0.005 ± 0.067 | -0.0135 ± 0.0064 | 0.0075 ± 0.21 | 0.0075 ± 0.044 | -0.0215 ± 0.0092 | -0.041 ± 0.15 | 0.046 ± 0.05 | 0.0265 ± 0.21 | 0.0915 ± 0.12
SAg:CXCL8/IL-8 | -0.0225 ± 0.021 | -0.088 ± 0.0099 | -0.237 ± 0.088 | -0.0055 ± 0.037 | 0.0075 ± 0.015 | 0.0055 ± 0.018 | 0.0165 ± 0.025 | -0.0175 ± 0.016 | 0.06 ± 0.0042 | 0.126 ± 0.019 | 0.039 ± 0.1 | -0.012 ± 0.025 | 0.012 ± 0.058 | 0.0265 ± 0.059 | -0.0085 ± 0.023 | 0.0095 ± 0.053
SAg:CXCL9/MIG | -0.0135 ± 0.018 | -0.004 ± 0.0071 | 0.0105 ± 0.0064 | -0.0015 ± 0.0021 | -0.0055 ± 0.005 | 0.0105 ± 0.0021 | 0.0075 ± 0.013 | -0.0085 ± 0.011 | 0.015 ± 0.013 | -0.0255 ± 0.013 | -0.005 ± 0.0014 | -0.0015 ± 0.0078 | 0.002 ± 0.018 | -0.0045 ± 0.0021 | -0.0045 ± 0.0035 | 0.0075 ± 0.012
SAg:PBMC Cytotoxicity | 0 ± 0.05 | 0.0415 ± 0.021 | 0.121 ± 0.023 | 0.018 ± 0.016 | -0.008 ± 0.011 | 0.0425 ± 0.067 | 0.008 ± 0.027 | -0.002 ± 0.0071 | -0.037 ± 0.0028 | 0.017 ± 0.0071 | -0.0155 ± 0.029 | 0.0105 ± 0.022 | 0.011 ± 0.027 | 0.01 ± 0.013 | -0.011 ± 0.0028 | -0.0055 ± 0.037
SAg:Proliferation | 0.0045 ± 0.0035 | -0.016 ± 0.013 | -0.0695 ± 0.019 | -0.0135 ± 0.018 | 0.0105 ± 0.0064 | 0.033 ± 0.018 | -0.0065 ± 0.0035 | -0.006 ± 0.0042 | -0.024 ± 0.034 | -0.023 ± 0.035 | -0.0275 ± 0.0035 | -0.0095 ± 0.049 | 0.0025 ± 0.019 | -0.0275 ± 0.012 | -0.0025 ± 0.052 | 0.0295 ± 0.076
SAg:SRB | -0.003 ± 0.0028 | -0.001 ± 0.0028 | -0.094 ± 0.021 | -0.0225 ± 0.0035 | -0.02 ± 0.0028 | -0.015 ± 0.021 | -0.002 ± 0.0057 | -0.0015 ± 0.00071 | -0.016 ± 0.0014 | -0.078 ± 0.0042 | 0.0055 ± 0.0064 | 0.0005 ± 0.0021 | 0.0015 ± 0.0035 | -0.012 ± 0.0028 | -0.001 ± 0.017 | 0.0035 ± 0.0035

Source: the supplement of paper PMC10331698
